{"source": "patent US7067486B2", "about": "“Acetylcholinesterase-derived peptides and uses thereof” (priority 1999, dated 2006)", "key": {"CD34^+ cells [1]": {"system": "CD34^+ cells", "experiment": "BrdU incorporation into CD34+ cells (cell proliferation)", "assay_type": "cell-based, human", "settings": "peptide 2 nM, cord blood CD34+ cells", "source_text": "Cell Source: UCB was collected, following informed consent of the parents and with the approval of the Sourasky Medical Center Ethics Committee, as previously described [Grisaru et al. (1999a) Am. J. Obstet. Gynecol, 180, 1240–1243]. Following 1:1 (v/v) dilution in Iscove's modified Dulbecco medium (IMDM, Beit Haemek, Israel), mononuclear cells were separated using 3% gelatin (Difco, Detroit, Mich.) and Ficoll-Hypaque gradients (<1.077 g/ml; Pharmacia, Uppsala, Sweden) [Pick et al. (1998) Br. J. Haematol. 103, 639–50]. CD34^+ cells were enriched using CD34 immunoglobulin-coated magnetic beads (CD34 progenitor cell selection system, Dynal, Norway).CD34^+ cells analysis was performed by flow cytometry (Becton Dickinson Immunocytochemistry System Inc., San Jose, Calif.), using CD34-PE (Becton Dickinson Immunocytometry System, Inc.) and CD45-FITC (Dako, Glostrup, Denmark) monoclonal antibodies. […] Liquid Cultures: UCB CD34^+ cells were set for liquid cultures at a concentration of 10^5/mL in IMDM, containing 10% autologous plasma, 2 mM L-glutamine (Sigma Chemical Co., St Louis, Mo.), penicillin ([…]), streptomycin ([…]), amphotericin B (2×10^−5 M) (Sigma Chemical Co.), and heparin (20 IU/mL, Gibco, Grand Island, N.Y.), all in a fully humidified atmosphere at 37° C. and 5% CO2. The following elements were added where noted: • 1. Hematopoietic growth factors: Interleukin 3 (IL3, 5 ng/mL, Immunex, Seattle, Wash.), interleukin 6 (IL6, 50 ng/mL, R&D Systems, Minneapolis, Minn.), TPO (1 ng/mL, R&D Systems), stem cell factor (SCF, 10 ng/mL, R&D Systems), FLT-3 ligand (FLT3, 50 ng/mL, R&D Systems), granulocyte-macrophage colony stimulating factor (GM-CSF, 50 ng/mL, Biogenesis Ltd, Bournemouth, UK) and combinations of the above, for 24 hr to 28 days (supplemented every 4 days). • 2. […] AChE C-terminal peptides: The following C-terminal peptides of the AChE synaptic (ASP, also denoted SEQ ID: No. 2) and readthrough (ARP, also denoted SEQ ID: No. 1) isoforms were synthesized using a 433A peptide synthesizer (PE Applied Biosystems, Inc., Norwalk, Conn.). • ASP: 1-[…]-40, also denoted as SEQ ID: No. 2. • ARP: 1-[…]-26, also denoted as SEQ ID: No. 1.\n[…] Twenty-eight day liquid cultures were sampled every 6–8 days for viable cell counting (using trypan blue dye exclusion), cell phenotyping (CD34^+, CD33^+ and CD41^+ quantification using flow cytometry, with CD34-PE, CD33-FITC (Immunotech/Coulter, Hialeah, Fla.), CD41-FITC (Immunoquality Products, Groningen, Netherlands) and CD45-FITC monoclonal antibodies), and growth of progenitor colony (granulocyte-macrophage and megakaryocytic), using previously described techniques (Pick et al. (1998) id ibid.). […]"}, "CD34^+ cells [2]": {"system": "CD34^+ cells", "experiment": "Viable cell expansion in CD34+ liquid cultures (trypan blue exclusion)", "assay_type": "cell-based, human", "source_text": "Cell Source: UCB was collected, following informed consent of the parents and with the approval of the Sourasky Medical Center Ethics Committee, as previously described [Grisaru et al. (1999a) Am. J. Obstet. Gynecol, 180, 1240–1243]. Following 1:1 (v/v) dilution in Iscove's modified Dulbecco medium (IMDM, Beit Haemek, Israel), mononuclear cells were separated using 3% gelatin (Difco, Detroit, Mich.) and Ficoll-Hypaque gradients (<1.077 g/ml; Pharmacia, Uppsala, Sweden) [Pick et al. (1998) Br. J. Haematol. 103, 639–50]. CD34^+ cells were enriched using CD34 immunoglobulin-coated magnetic beads (CD34 progenitor cell selection system, Dynal, Norway).CD34^+ cells analysis was performed by flow cytometry (Becton Dickinson Immunocytochemistry System Inc., San Jose, Calif.), using CD34-PE (Becton Dickinson Immunocytometry System, Inc.) and CD45-FITC (Dako, Glostrup, Denmark) monoclonal antibodies. […] Liquid Cultures: UCB CD34^+ cells were set for liquid cultures at a concentration of 10^5/mL in IMDM, containing 10% autologous plasma, 2 mM L-glutamine (Sigma Chemical Co., St Louis, Mo.), penicillin ([…]), streptomycin ([…]), amphotericin B (2×10^−5 M) (Sigma Chemical Co.), and heparin (20 IU/mL, Gibco, Grand Island, N.Y.), all in a fully humidified atmosphere at 37° C. and 5% CO2. The following elements were added where noted: • 1. Hematopoietic growth factors: Interleukin 3 (IL3, 5 ng/mL, Immunex, Seattle, Wash.), interleukin 6 (IL6, 50 ng/mL, R&D Systems, Minneapolis, Minn.), TPO (1 ng/mL, R&D Systems), stem cell factor (SCF, 10 ng/mL, R&D Systems), FLT-3 ligand (FLT3, 50 ng/mL, R&D Systems), granulocyte-macrophage colony stimulating factor (GM-CSF, 50 ng/mL, Biogenesis Ltd, Bournemouth, UK) and combinations of the above, for 24 hr to 28 days (supplemented every 4 days). • 2. Endothlial Growth factors: Epidermal growth factor (EGF 10 ng/ml, Sigma Chemical Co.), basic Fibroblast growth factor (bFGF 20 ng/ml, Sigma Chemical Co.) incubated in a serum free medium (SFM) for 48 hr. • 3. […] AChE C-terminal peptides: The following C-terminal peptides of the AChE synaptic (ASP, also denoted SEQ ID: No. 2) and readthrough (ARP, also denoted SEQ ID: No. 1) isoforms were synthesized using a 433A peptide synthesizer (PE Applied Biosystems, Inc., Norwalk, Conn.). • ASP: 1-[…]-40, also denoted as SEQ ID: No. 2. • ARP: 1-[…]-26, also denoted as SEQ ID: No. 1. […]"}}}
{"substance": "ASP (DTLDEAERQWKAEFHRWSSYMVHWKNQFDHYSKQDRCSDL)", "values": [{"measurement": "BrdU incorporation values", "setting": "CD34^+ cells [1]; 16 hrs post-plating", "result": "0.095 ± 0.004"}, {"measurement": "BrdU incorporation values", "setting": "CD34^+ cells [1]; 24 hrs post-plating", "result": "0.182 ± 0.018"}, {"measurement": "BrdU incorporation values", "setting": "CD34^+ cells [1]; 36 hrs post-plating", "result": "0.260 ± 0.022"}, {"measurement": "Total viable cells", "setting": "CD34^+ cells [2]; day 14, seeded at 50,000 cells/well, ARP 2 nM, cortisol 1.2 μM, ASP 2 nM, SCF 50 ng/ml, AS1 20 pM, PBAN 2 nM", "result": 100.0, "unit": "cells per culture × 10^−3"}, {"measurement": "promotion of cell expansion compared with ARP", "setting": "CD34^+ cells [2]; similar doses, alone or with cytokines, 2 weeks", "result": "less effective than ARP"}]}
